Data published in patent US8835476B2, “Synthesis of novel antimicrobials” (priority 2005, dated 2014).
≈ marks a conversion by molar mass, not a printed value. Like-named read-outs stand apart in the source and are kept apart here.

How the values were obtained:
Experiment in all cases: Broth microdilution MIC, ATCC strains
Format in all cases: cell-based
[1] = test system: E. coli ATCC 25922; settings: for MIC: Escherichia coli
Procedure, shortened: (§1)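 Clinical organisms, randomly drawn NAUTICA urinary isolates, and ATCC reference strains tested by NCCLS M7-A6 broth microdilution at 5×10^5 CFU/ml. Incubation 16 to 20 hours, 35° C, ambient air; MIC defined as lowest concentration without visible growth.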

[2] = test system: Pr. stuartii ATCC 33672; settings: Providencia stuartii
Procedure, shortened: as §1

[3] = test system: K. oxytoca ATCC 49131; settings: Klebsiella oxytoca
Procedure, shortened: as §1

[4] = test system: E. aerogenes ATCC 13048; settings: Klebsiella aerogenes
Procedure, shortened: as §1

[5] = test system: S. aureus ATCC 29213; settings: Staphylococcus aureus, ATCC29213, S. aureus ATCC 29213; read-out: MIC (growth inhibition, microdilution method)
Procedure, shortened: as §1

[6] = test system: B. cepacia ATCC 25416; settings: Burkholderia cepacia
Procedure, shortened: as §1

[7] = test system: E. faecalis ATCC 29212; settings: for MIC: Enterococcus faecalis, read-out: MIC (growth inhibition, microdilution method)
Procedure, shortened: as §1

[8] = test system: S. warneri ATCC 27836; settings: Staphylococcus warneri, ATCC27836; S. warneri ATCC 27836; read-out: MIC (growth inhibition, microdilution method)
Procedure, shortened: as §1

[9] = test system: S. epidermidis ATCC 14990; settings: Staphylococcus epidermidis, ATCC14990; S. epidermidis ATCC 14990; read-out: MIC (growth inhibition, microdilution method)
Procedure, shortened: as §1

[10] = test system: E. faecium ATCC 35667; settings: Enterococcus faecium, ATCC35667, read-out: MIC (growth inhibition, microdilution method)
Procedure, shortened: as §1

[11] = test system: S. saprophyticus ATCC 15305; settings: Staphylococcus saprophyticus, ATCC15305; S. saprophyticus ATCC 15305; read-out: MIC (growth inhibition, microdilution method)
Procedure, shortened: as §1

[12] = test system: P. vulgaris ATCC 49132; settings: Proteus vulgaris
Procedure, shortened: as §1

[13] = test system: E. cloacae ATCC 23355; settings: Enterobacter cloacae
Procedure, shortened: as §1

[14] = test system: S. liquefaciens ATCC 27592; settings: read-out: MIC (growth inhibition, microdilution method)
Procedure, shortened: as §1

[15] = test system: Ps. aeruginosa ATCC 27853; settings: for MIC: Pseudomonas aeruginosa
Procedure, shortened: as §1

[16] = test system: MRSA ATCC 33591; settings: Staphylococcus aureus; MRSA ATCC 33591; read-out: MIC (growth inhibition, microdilution method)
Procedure, shortened: as §1

[17] = test system: A. anitratus ATCC 19606; settings: Acinetobacter calcoaceticus
Procedure, shortened: as §1

[18] = test system: S. marcescens ATCC 8100; settings: Serratia marcescens
Procedure, shortened: as §1

[19] = test system: S. maltophilia ATCC 13637; settings: Stenotrophomonas maltophilia
Procedure, shortened: as §1

[20] = test system: P. mirabilis ATCC 29245; settings: Proteus mirabilis
Procedure, shortened: as §1

[21] = test system: S. simulans ATCC 27848; settings: Staphylococcus simulans, ATCC27848, read-out: MIC (growth inhibition, microdilution method)
Procedure, shortened: as §1

[22] = test system: K. pneumoniae ATCC 13883; settings: Klebsiella pneumoniae
Procedure, shortened: as §1

[23] = ATCC25922, E. coli ATCC 25922, read-out: MIC (growth inhibition, microdilution method)
[24] = ATCC33672, Pr. stuartii ATCC 33672, read-out: MIC (growth inhibition, microdilution method)
[25] = ATCC49131, K. oxytoca ATCC 49131, read-out: MIC (growth inhibition, microdilution method)
[26] = ATCC13048, E. aerogenes ATCC 13048, read-out: MIC (growth inhibition, microdilution method)
[27] = ATCC25416, B. cepacia ATCC 25416, read-out: MIC (growth inhibition, microdilution method)
[28] = ATCC29212, E. faecalis ATCC 29212
[29] = ATCC29212, E. faecalis, ATCC number not given
[30] = ATCC49132, P. vulgaris ATCC 49132, read-out: MIC (growth inhibition, microdilution method)
[31] = ATCC23355, E. cloacae ATCC 23355, read-out: MIC (growth inhibition, microdilution method)
[32] = ATCC27853, Ps. aeruginosa ATCC 27853, read-out: MIC (growth inhibition, microdilution method)
[33] = ATCC19606, A. anitratus ATCC 19606, read-out: MIC (growth inhibition, microdilution method)
[34] = ATCC8100, S. marcescens ATCC 8100, read-out: MIC (growth inhibition, microdilution method)
[35] = ATCC13637, S. maltophilia ATCC 13637, read-out: MIC (growth inhibition, microdilution method)
[36] = ATCC29245, P. mirabilis ATCC 29245, read-out: MIC (growth inhibition, microdilution method)
[37] = ATCC13883, K. pneumoniae ATCC 13883, read-out: MIC (growth inhibition, microdilution method)

| Compound | MIC [1, 23] [µg/mL] | MIC [2, 24] [µg/mL] | MIC [3, 25] [µg/mL] | MIC [4, 26] [µg/mL] | MIC [5] [µg/mL] | MIC [6, 27] [µg/mL] | MIC [7, 28] [µg/mL] | MIC [7, 29] [µg/mL] | MIC [8] [µg/mL] | MIC [9] [µg/mL] | MIC [10] [µg/mL] | MIC [11] [µg/mL] | MIC [12, 30] [µg/mL] | MIC [13, 31] [µg/mL] | MIC ([14]; S. liquefaciens ATCC 27592) [µg/mL] | MIC [15, 32] [µg/mL] | MIC [16] [µg/mL] | MIC [17, 33] [µg/mL] | MIC [18, 34] [µg/mL] | MIC [21] [µg/mL] | further results |
| --- | --- | --- | --- | --- | --- | --- | --- | --- | --- | --- | --- | --- | --- | --- | --- | --- | --- | --- | --- | --- | --- |
| Cn1nnnc1-c1cc(-c2ccc(F)cc2)sc1C(=O)O [DNM-143, 5-(4-Fluoro-phenyl)-3-(1-methyl-1H-tetrazol-5-yl)-thiophene-2-carboxylic acid] | > 8 | > 8 | > 8 | > 8 | > 8 | > 8 | > 8 | > 8 | > 8 | > 8 | > 8 | > 8 | > 8 | > 8 | > 8 | > 8 | > 8 | > 8 | > 8 | > 8 | MIC [19, 35]: > 8 µg/mL; MIC [20, 36]: > 8 µg/mL; MIC [22, 37]: > 8 µg/mL |
| Cn1nnc(-c2cc(C(=O)O)sc2-c2ccc(F)cc2)n1 [DNM-123, 5-(4-fluorophenyl)-4-(2-methyl-2H-tetrazol-5-yl)thiophene-2-carboxylic acid] | 8 (≈ 26.3 µM) | > 8 | > 8 | 8 (≈ 26.3 µM) | > 8 | ≤ 0.5 | 8 (≈ 26.3 µM) | 8 (≈ 26.3 µM) | > 8 | 4 (≈ 13.1 µM) | 8 (≈ 26.3 µM) | > 8 | > 8 | 8 (≈ 26.3 µM) | 8 (≈ 26.3 µM) | 8 (≈ 26.3 µM) | > 8 | ≤ 0.5 | 8 (≈ 26.3 µM) | > 8 | MIC (growth inhibition, microdilution method) ([1]; E. coli ATCC 25922): 8 µg/mL (≈ 26.3 µM); MIC (growth inhibition, microdilution method) ([7]; E. faecalis ATCC 29212): 8 µg/mL (≈ 26.3 µM); MIC (growth inhibition, microdilution method) ([7]; E. faecalis, ATCC number not given): 8 µg/mL (≈ 26.3 µM); MIC (growth inhibition, microdilution method) ([15]; Ps. aeruginosa ATCC 27853): 8 µg/mL (≈ 26.3 µM); MIC [19, 35]: ≤ 0.5 µg/mL; MIC [20, 36]: > 8 µg/mL; MIC [22, 37]: 8 µg/mL (≈ 26.3 µM) |
| CCOC(=O)c1cc(-c2nnn(C)n2)c(-c2ccc(F)cc2)s1 [DNM-125, ethyl 5-(4-fluorophenyl)-4-(2-methyl-2H-tetrazol-5-yl)thiophene-2-carboxylate] | > 16 | > 16 | > 16 | > 16 | > 16 | > 16 | > 16 | > 16 | > 16 | > 16 | > 16 | > 16 | > 16 | > 16 | > 16 | > 16 | > 16 | > 16 | > 16 | > 16 | MIC [19, 35]: > 16 µg/mL; MIC [20, 36]: > 16 µg/mL; MIC [22, 37]: > 16 µg/mL |
| Cn1nnnc1-c1cc(-c2ccc(F)cc2)sc1-c1ccc(F)cc1 [DNM-133, 5-(2,5-Bis(4-fluorophenyl)thiophen-3-yl)-1-methyl-1H-tetrazole] | > 16 | > 16 | > 16 | > 16 | > 16 | > 16 | > 16 | > 16 | > 16 | > 16 | > 16 | > 16 | > 16 | > 16 | > 16 | > 16 | > 16 | > 16 | > 16 | > 16 | MIC [19, 35]: > 16 µg/mL; MIC [20, 36]: > 16 µg/mL; MIC [22, 37]: > 16 µg/mL |
| Cn1nnc(-c2cc(C(=O)O)sc2C(=O)O)n1 [DNM-112, 3-(2-Methyl-2H-tetrazol-5-yl)-thiophene-2,5-dicarboxylic acid] |  |  |  |  | 16 (≈ 62.9 µM) |  | 8 (≈ 31.5 µM) | 8 (≈ 31.5 µM) | 64 (≈ 252 µM) | 16 (≈ 62.9 µM) | 8 (≈ 31.5 µM) | 64 (≈ 252 µM) |  |  |  |  | 16 (≈ 62.9 µM) |  |  | 8 (≈ 31.5 µM) | MIC ([1]; ATCC25922, read-out: MIC (growth inhibition, microdilution method)): > 256 µg/mL; MIC ([2]; ATCC33672, read-out: MIC (growth inhibition, microdilution method)): > 256 µg/mL; MIC ([3]; ATCC49131, read-out: MIC (growth inhibition, microdilution method)): > 256 µg/mL; MIC ([4]; ATCC13048, read-out: MIC (growth inhibition, microdilution method)): > 256 µg/mL; MIC ([6]; ATCC25416, read-out: MIC (growth inhibition, microdilution method)): > 256 µg/mL; MIC ([12]; ATCC49132, read-out: MIC (growth inhibition, microdilution method)): > 256 µg/mL; MIC ([13]; ATCC23355, read-out: MIC (growth inhibition, microdilution method)): > 256 µg/mL; MIC [14]: > 256 µg/mL; MIC ([15]; ATCC27853, read-out: MIC (growth inhibition, microdilution method), Ps. aeruginosa ATCC 27853): > 256 µg/mL; MIC ([17]; ATCC19606, read-out: MIC (growth inhibition, microdilution method)): > 256 µg/mL; MIC ([18]; ATCC8100, read-out: MIC (growth inhibition, microdilution method)): > 256 µg/mL; MIC ([19]; ATCC13637, read-out: MIC (growth inhibition, microdilution method)): > 256 µg/mL; MIC ([20]; ATCC29245, read-out: MIC (growth inhibition, microdilution method)): > 256 µg/mL; MIC ([22]; ATCC13883, read-out: MIC (growth inhibition, microdilution method)): > 256 µg/mL |
